Data on seven compounds can be found in ChEMBL document CHEMBL1201862, “PubChem BioAssay data set” (2004).

Among the test systems are SF-268; UACC-62; HCT-116; SF-539; DU-145; TK-10; OVCAR-3; HOP-92; NCI-H460; SR; HCT-15; MDA-MB-435; Malme-3M; K562; U-251; NCI/ADR-RES; A498; PC-3; MCF7; Hs-578T.
Common to all, as to assay: NCI-60 cell line screen, 48 h

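Five concentrations, 48 hours, 96-well plates. GI50 is the concentration that inhibits growth by half.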 Calls of active or inactive are those of the source. Cut-off read from the data, not from the text of the source: active = GI50 up to about 1.1 µM and inactive = higher. Some results are limits rather than exact numbers.

With `Cc1c(N2CCCC2)cc2c(c1NC(=O)c1ccccc1Cl)C(C)(C)CC2(C)C`, the GI50 in the experiment with SF-268 is 15.4 µM (inactive); with UACC-62, 10.8 µM (inactive); in the experiment with HCT-116, 10.6 µM (inactive); in the experiment with SF-539, 19.8 µM (inactive); in the experiment on DU-145 it was 15.9 µM (inactive); in the experiment with TK-10, 11.1 µM (inactive). Besides, the GI50 in the experiment with OVCAR-3 was 8.3 µM (inactive); with HOP-92, 11.5 µM (inactive); with NCI-H460, 12.3 µM (inactive); in the experiment on SR it was 14.7 µM (inactive); in the experiment with HCT-15, 14.6 µM; in the experiment with MDA-MB-435, 14.4 µM (inactive). Also, the GI50 was 17.7 µM (inactive) with Malme-3M; 35 µM (inactive) with K562; 14.5 µM (inactive) in the experiment with U-251; 13.4 µM (inactive) in the experiment on NCI/ADR-RES; 15 µM (inactive) in the experiment on A498; 15.5 µM (inactive) in the experiment with PC-3. For the same compound, the GI50 in the experiment on MCF7 is 13.8 µM (inactive); in the experiment with Hs-578T, 16.7 µM (inactive).
Regarding `Cc1nc(N)nc(S)c1CCC(=O)O`, the GI50 in the experiment on SF-268, with UACC-62, in the experiment on HCT-116, in the experiment with SF-539, with DU-145 and in the experiment with TK-10 was > 100 µM (inactive) in each case. Also, the GI50 in the experiment on OVCAR-3 is > 100 µM (inactive); in the experiment on HOP-92 it was > 100 µM (inactive); with NCI-H460, > 100 µM (inactive); in the experiment with SR it was > 100 µM (inactive); in the experiment on HCT-15, > 100 µM; with MDA-MB-435, > 100 µM (inactive). Also, the GI50 in the experiment with Malme-3M, in the experiment on K562, in the experiment with U-251, in the experiment on NCI/ADR-RES, with A498 and in the experiment with PC-3 was > 100 µM (inactive) throughout. For the same compound, the GI50 in the experiment on MCF7 and in the experiment on Hs-578T was > 100 µM (inactive) each time.
Regarding `O=C1c2ccccc2C(=O)c2c1nc1ccccc1c2-c1cncc(-c2c3c(nc4ccccc24)C(=O)c2ccccc2C3=O)c1`, the GI50 is 6.08 µM (inactive) in the experiment with SF-268; 5.65 µM (inactive) in the experiment on UACC-62; 4.17 µM (inactive) in the experiment with HCT-116; 6.46 µM (inactive) in the experiment on SF-539; 4.09 µM (inactive) with DU-145; 37.3 µM (inactive) with TK-10. Also, the GI50 was 5.7 µM (inactive) with OVCAR-3; 4.32 µM (inactive) in the experiment on HOP-92; 2.43 µM (inactive) with NCI-H460; 1.53 µM (inactive) in the experiment on SR; 1.24 µM with HCT-15; 1.83 µM (inactive) in the experiment on MDA-MB-435. Further, the GI50 with Malme-3M was 11.9 µM (inactive); with K562, 1.31 µM (inactive); in the experiment on U-251 it was 8 µM (inactive); in the experiment on NCI/ADR-RES, 4.13 µM (inactive); in the experiment with A498 it was 9.18 µM (inactive); with PC-3, 2.15 µM (inactive). Moreover, the GI50 in the experiment with MCF7 is 5.19 µM (inactive); in the experiment with Hs-578T it was 3.69 µM (inactive).
Regarding `CN1CCN(CCn2c3c4ccccc4ccc3c3oc(=O)c4ccccc4c32)CC1`, the GI50 in the experiment on SF-268 is 6 µM (inactive); in the experiment on UACC-62, 3.56 µM (inactive); in the experiment with HCT-116 it was 1.88 µM (inactive); in the experiment on SF-539, 1.65 µM (inactive); with DU-145 it was > 10 µM (inactive); in the experiment on TK-10, 10.5 µM (inactive). For the same compound, the GI50 in the experiment on OVCAR-3 is 10.6 µM (inactive); with HOP-92 it was 5.85 µM (inactive); in the experiment on NCI-H460 it was 1.99 µM (inactive); with SR it was 1.5 µM (inactive); with HCT-15, 2.72 µM; in the experiment with MDA-MB-435 it was 1.88 µM (inactive). Also, the GI50 is 15.1 µM (inactive) with Malme-3M; 1.44 µM (inactive) in the experiment with K562; 2.49 µM (inactive) in the experiment on U-251; 6.87 µM (inactive) in the experiment with NCI/ADR-RES; 5.09 µM (inactive) in the experiment with A498; 2.03 µM (inactive) in the experiment on PC-3. The results for the GI50 in the experiment with MCF7 and in the experiment on Hs-578T were 1.55 µM (inactive) and 4.79 µM (inactive), respectively.
As for `CC(=O)Nc1ccc2c3c(cc(O)c2c1)N(C(=O)CCCCCCC(=O)N1CC(CCl)c2c1cc(O)c1cc(NC(C)=O)ccc21)CC3CCl` (stereo not given), the GI50 in the experiment on SF-268 is < 0.01 µM (active); in the experiment on UACC-62, < 0.01 µM (active); with HCT-116, < 0.01 µM (active); in the experiment on SF-539, < 0.01 µM (active); in the experiment on DU-145, < 0.01 µM (active); in the experiment with TK-10, 0.0251 µM (active). Also, the GI50 in the experiment on OVCAR-3 was < 0.01 µM (active); with HOP-92 it was < 0.0117 µM (active); with NCI-H460, < 0.01 µM (active); in the experiment with SR, < 0.01 µM (active); with HCT-15, 0.231 µM; in the experiment with MDA-MB-435, 0.0127 µM (active). Further, the GI50 in the experiment on Malme-3M was < 0.01 µM (active); in the experiment with K562 it was < 0.0125 µM (active); in the experiment on U-251, < 0.01 µM (active); in the experiment on NCI/ADR-RES it was 0.673 µM (active); in the experiment on A498, < 0.01 µM (active); with PC-3, < 0.0119 µM (active). Moreover, the GI50 was < 0.01 µM (active) in the experiment on MCF7 and 0.0306 µM (active) with Hs-578T.
Regarding `C=C1C(=O)OC2C(C)C3C=CC(=O)[C@@]3(C)C(OC(=O)/C(C)=C/C)C1[C@@H]2OC(C)=O` (stereo not given in full), the GI50 in the experiment on SF-268 was 0.673 µM (active); with UACC-62, 0.344 µM (active); in the experiment with HCT-116, 0.319 µM (active); in the experiment with SF-539, 0.333 µM (active); with DU-145, 1.36 µM (inactive); in the experiment on TK-10, 0.452 µM (active). The GI50 in the experiment with OVCAR-3 was 0.26 µM (active); with HOP-92, 0.551 µM (active); in the experiment with NCI-H460 it was 0.3 µM (active); in the experiment with SR it was 0.168 µM (active); in the experiment with HCT-15, 0.247 µM; in the experiment with MDA-MB-435 it was 0.267 µM (active). The GI50 in the experiment on Malme-3M was 0.221 µM (active); with K562, 0.374 µM (active); with U-251, 1.15 µM (inactive); with NCI/ADR-RES it was 0.237 µM (active); in the experiment on A498, 1.49 µM (inactive); in the experiment on PC-3, 0.522 µM (active). In addition, the GI50 is 0.458 µM (active) in the experiment with MCF7 and 0.308 µM (active) with Hs-578T.
For `CCN(CC)CCNc1ccc2ncn3c4c(OC)cccc4c(=O)c1c23`, the GI50 was 3.92 µM (inactive) in the experiment with SF-268; 6.68 µM (inactive) in the experiment on UACC-62; 0.54 µM (active) in the experiment with HCT-116; 3.78 µM (inactive) in the experiment with SF-539; 4.5 µM (inactive) with DU-145; 12.2 µM (inactive) in the experiment with TK-10. Moreover, the GI50 in the experiment on OVCAR-3 was 0.863 µM (active); with HOP-92, 4.27 µM (inactive); in the experiment with NCI-H460, 3 µM (inactive); in the experiment on SR, 3.4 µM (inactive); in the experiment with HCT-15, 3.85 µM; in the experiment with MDA-MB-435 it was 6.58 µM (inactive). For the same compound, the GI50 was 6.76 µM (inactive) with Malme-3M; 2.67 µM (inactive) in the experiment with K562; 4.89 µM (inactive) in the experiment on U-251; 1.79 µM (inactive) in the experiment on NCI/ADR-RES; 13.9 µM (inactive) with A498; 3.97 µM (inactive) with PC-3. Further, the GI50 was 2.47 µM (inactive) in the experiment with MCF7 and 11.6 µM (inactive) in the experiment with Hs-578T.
